Results on one compound are retold here after patent publication US20090258041A1, “Protection of Oxidizable Agents” (priority 2005, published 2009).

This data set in a line: Stabilization of Vitamin C: spectral absorption at 265 nm after exposure to air with storage in the dark. Type of data set: physicochemical. Conditions: Vitamin C combined with Nanotope AO7 (encapsulated AO7 1.00%, ascorbic acid 1.00% in water phase), phosphate buffer pH 6, exposure to air, 20° C. As for the experimental part: Aqueous solution of Vitamin C (concentration=40.5 mM), buffered at pH=6 (Phosphate buffer, previously evacuated and then flushed with Nitrogen to remove as much Oxygen as possible). a) Standalone Vitamin C: 0.7 mM b) Combination Vitamin C/Nanotope AO7: [table] Absorption measurement with Perkin Elmer Lambda 16; cuvette length d=0.1 cm Irradiation chamber Atlas CPS+; temperature of measurement=35° C. Spectral absorption of Vitamin C (Ascorbic Acid) at its maximum wavelength (Imax=265 nm); maximum extinction at time after exposure to air with storage in the dark. Experiments were done at 20° C.

Regarding `O=C1O[C@H]([C@@H](O)CO)C(O)=C1O` [Vitamin C, ascorbic acid], the “protection of Vitamin C (maximum extinction at 265 nm)” value is reported as “efficiently protected”.
